In US6617459B2, “Azabicyclo derivatives and their use” (NeuroSearch A/S, priority 1999, dated 2003):
Read-outs that look alike come from different tables or passages of the source.

Key:
Assay type in all cases: biochemical, male Wistar rats
[1] = molecular target: T1, dopamine transporter/uptake site (3H-DA uptake, striatal synaptosomes) (Rattus norvegicus, UniProt P23977); assay: In vitro inhibition of 3H-dopamine (3H-DA) uptake in striatal synaptosomes
T1 construct: Corpi striati from male Wistar rats (150-200 g) are homogenised; from tissue; host or cells: rat corpus striatum, P2 synaptosomal pellet
T1 sequence (P23977 whole entry): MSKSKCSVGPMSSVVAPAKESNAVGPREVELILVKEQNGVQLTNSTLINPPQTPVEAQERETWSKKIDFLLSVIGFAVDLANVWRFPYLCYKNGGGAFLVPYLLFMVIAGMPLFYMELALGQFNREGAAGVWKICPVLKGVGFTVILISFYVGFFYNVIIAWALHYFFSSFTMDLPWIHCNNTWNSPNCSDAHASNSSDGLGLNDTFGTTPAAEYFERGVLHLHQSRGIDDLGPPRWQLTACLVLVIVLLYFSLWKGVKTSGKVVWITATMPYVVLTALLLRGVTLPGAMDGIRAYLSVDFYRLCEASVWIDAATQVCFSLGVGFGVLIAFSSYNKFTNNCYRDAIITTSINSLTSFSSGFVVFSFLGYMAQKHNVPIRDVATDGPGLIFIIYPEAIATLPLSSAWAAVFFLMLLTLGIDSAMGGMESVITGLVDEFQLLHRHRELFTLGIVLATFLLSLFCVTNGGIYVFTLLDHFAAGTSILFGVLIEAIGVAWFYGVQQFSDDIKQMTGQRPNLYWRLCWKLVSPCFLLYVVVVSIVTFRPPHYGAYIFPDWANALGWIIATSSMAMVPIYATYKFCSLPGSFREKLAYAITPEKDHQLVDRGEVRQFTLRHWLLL
Excerpt: (§1) The compounds of the invention have been tested for their ability to inhibit reuptake of dopamine(DA) noradrenaline(NA) and serotonine(5-HT) in synaptosomes.
(§2) Specific neurotransmitter transporters/uptake sites on nerve terminals presumably function to terminate neuronal signalling by removing the neurotransmitters dopamine, noradrenaline and serotonine, respectively, from the synaptic cleft. The activity of the transporter integral proteins can be measured in vitro by synaptosomal uptake of ^3H-dopamine, ^3H-noradrenaline and ^3H-serotonine, respectively.
In vitro Inhibition of ^3H-dopamine (^3H-DA) Uptake in Striatal Synaptosomes
(§3) Tissue preparations: Preparations are performed at 0-4° C. unless otherwise indicated. Corpi striati from male Wistar rats (150-200 g) are homogenised for 5-10 sec in 100 volumes of ice-cold 0.32M sucrose containing 1 mM pargyline using an Ultra-Turrax homogenizer. Monoamine oxidase activity will be inhibited in the presence of pargyline. The homogenate is centrifuged at 1000×g for 10 min. The resulting supernatant is then centrifuged at 27,000×g for 50 min and the supernatant is discarded. The pellet (P2) is resuspended in oxygenated (equilibrated with an atmosphere of 96% O2: 4% CO2 for at least 30 min) Krebs-Ringer incubation buffer (8000 ml per g of original tissue) at pH 7.2 containing 122 mM NaCl, 0.16 mM EDTA, 4.8 mM KCl, 12.7 mM Na2HPO4, 3.0 mM NaH2PO4, 1.2 mM MgSO4, 1 mM CaCl2, 10 mM glucose and 1 mM ascorbic acid.
(§4) Assay: Aliquots of 4.0 ml tissue suspension are added to 100 μl of test solution and 100 μl of ^3H-DA (1 nM, final concentration), mixed and incubated for 25 min at 37° C. Non-specific uptake is determined using benztropine (10 μM, final concentration). After incubation the samples are poured directly onto Whatman GF/C glass fibre filters under suction. The filters are then washed three times with 5 ml of ice-cold 0.9% (w/v) NaCl solution. The amount of radioactivity on the filters is determined by conventional liquid scintillation counting. Specific uptake is calculated as the difference between total uptake and non-specific uptake.
(§5) 25-75% inhibition of specific binding must be obtained, before calculation of an IC50.
The test value is given as IC50 (the concentration (μM) of the test substance which inhibits the specific binding of ^3H-DA by 50%).

[2] = molecular target: T2, serotonine transporter/uptake site (3H-5-HT uptake, cortical synaptosomes) (Rattus norvegicus, UniProt P31652); assay: In vitro inhibition of 3H-5-hydroxytryptamine (3H-5-HT, serotonine) uptake in cortical synaptosomes; settings: for IC50: cortical synaptosomes; for greater potency as inhibitors of serotonine uptake than of either noradrenaline or dopamine uptake: selectivity, 5-HT uptake vs NA or DA uptake, in vitro
T2 construct: Cerebral cortices from male Wistar rats (150-200 g) are homogenised; from tissue; host or cells: rat cerebral cortex, P2 synaptosomal pellet
T2 sequence (P31652 whole entry): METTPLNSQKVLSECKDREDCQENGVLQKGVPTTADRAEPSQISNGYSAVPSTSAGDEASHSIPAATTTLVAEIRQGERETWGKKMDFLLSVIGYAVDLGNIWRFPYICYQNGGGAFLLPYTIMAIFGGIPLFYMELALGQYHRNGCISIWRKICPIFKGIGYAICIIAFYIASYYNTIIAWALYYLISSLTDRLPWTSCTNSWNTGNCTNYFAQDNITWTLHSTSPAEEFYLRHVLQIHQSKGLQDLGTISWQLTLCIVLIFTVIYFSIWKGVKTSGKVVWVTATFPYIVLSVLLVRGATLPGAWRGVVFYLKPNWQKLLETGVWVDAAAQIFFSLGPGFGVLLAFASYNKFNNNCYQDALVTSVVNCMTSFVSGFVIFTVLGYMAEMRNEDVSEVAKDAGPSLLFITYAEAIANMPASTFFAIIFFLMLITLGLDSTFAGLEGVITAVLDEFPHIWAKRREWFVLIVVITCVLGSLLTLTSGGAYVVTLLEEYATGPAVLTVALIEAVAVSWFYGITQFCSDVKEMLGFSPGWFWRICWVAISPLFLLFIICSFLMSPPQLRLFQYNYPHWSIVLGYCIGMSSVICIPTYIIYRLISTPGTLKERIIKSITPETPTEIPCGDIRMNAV
Excerpt: as §1, §2
In vitro Inhibition of ^3H-5-hydroxytryptamine (^3H-5-HT, Serotonine) Uptake in Cortical Synaptosomes
as §3, with “Preparation:” for “preparations:”, “Cerebral cortices” for “Corpi striati”, “(1000” for “(8000”
as §4, with “^3H-5-HT” for “^3H-DA”, “30” for “25”, “citalopram (1” for “benztropine (10”
as §5
The test value is given as IC50 (the concentration (μM) of the test substance which inhibits the specific binding of ^3H-5-HT by 50%).

[3] = molecular target: noradrenaline transporter/uptake site (3H-NA uptake, hippocampal synaptosomes) (Rattus norvegicus, UniProt Q9WTR4); assay: In vitro inhibition of 3H-noradrenaline (3H-NA) uptake in hippocampal synaptosomes
Excerpt: as §1, §2
In vitro Inhibition of ^3H-noradrenaline (^3H-NA) Uptake in Hippocampal Synaptosomes
as §3, with “Tissue preparation:” for “Tissue preparations:”, “indicated. Hippocampi” for “indicated. Corpi striati”, “buffer (2000” for “buffer (8000”, “per […]” for “per g”, “MgSO4, 0.97” for “MgSO4, 1”
as §4, with “^3H-NA” for “^3H-DA”, “90” for “25”, “desipramine (1” for “benztropine (10”
as §5
The test value is given as IC50 (the concentration (μM) of the test substance which inhibits the specific binding of ^3H-NA by 50%).

[4] = DA-uptake IC50, Table 1, 3H-DA 1 nM, 25 min at 37° C.
[5] = 5-HT-uptake IC50, Table 1, 3H-5-HT 1 nM, 30 min at 37° C.
[6] = read-out: NA-uptake IC50, Table 1, 3H-NA 1 nM, 90 min at 37° C.
[7] = DA-uptake IC50, Table 2, value ± spread
[8] = 5-HT-uptake IC50, Table 2, value ± spread
[9] = read-out: NA-uptake IC50, Table 2, value ± spread

Row | SMILES | IC50 [1, 4] [nM] | IC50 [2, 5] [nM] | IC50 [3, 6] [nM] | IC50 [1, 7] [nM] | IC50 [2, 8] [nM] | greater potency as inhibitors of serotonine uptake than of either noradrenaline or dopamine uptake [2] [fold] | IC50 [3, 9] [nM]
1 | CN1C2C=C(c3ccc(C#N)cc3)CC1CC2 (racemic) [(±)-3-(4-cyanophenyl)-8-methyl-8-azabicyclo(3.2.1]oct-2-ene] | 18000 | 47 | 4900 |  |  |  | 
2 | CN1C2C=C(c3ccc([N+](=O)[O-])cc3)CC1CC2 (racemic) [(±)-3-(4-nitrophenyl)-8-methyl-8-azabicyclo[3.2.1]oct-2-ene] | 1500 | 16 | 500 |  |  |  | 
3 | FC(F)(F)Oc1ccc(C2=CC3CCC(C2)N3)cc1 (racemic) [(±)-3-(4-trifluoromethoxyphenyl)-8-azabicyclo[3.2.1]oct-2-ene (racemate), (±)-3-(4-trifluoromethoxyphenyl)-8-azabicyclo[3.2.1]oct-2-ene] |  |  |  | 18700 ± 3500 | 4.8 ± 0.6 | 3000 | 15600 ± 3500
4 | CN1C2C=C(c3ccc(OC(F)(F)F)cc3)CC1CC2 (racemic) [(±)-3-(4-trifluoromethoxyphenyl)-8-methyl-8-azabicyclo[3.2.1]oct-2-ene] | 22000 | 3.6 | 8000 | 21300 ± 1200 | 3.5 ± 0.3 | 3000 | 12000 ± 2300
5 | FC(F)(F)Oc1ccc(C2=CC3CCC(C2)N3)cc1 (single isomer, unassigned) [3-(4-trifluoromethoxyphenyl)-8-azabicyclo[3.2.1]oct-2-ene (enantiomer A*), 3-(4-trifluoromethoxyphenyl)-8-azabicyclo[3.2.1]oct-2-ene] |  |  |  |  | 22 ± 12 |  | 
6 | FC(F)(F)Oc1ccc(C2=CC3CCC(C2)N3)cc1 (single isomer, unassigned) [3-(4-trifluoromethoxyphenyl)-8-azabicyclo[3.2.1]oct-2-ene (enantiomer B*), 3-(4-trifluoromethoxyphenyl)-8-azabicyclo[3.2.1]oct-2-ene] |  |  |  |  | 12 ± 6 |  | 
